# Laboratory results taken from patent US6743630B2, “Method of preparing a protein array based on biochemical protein-protein interaction” (The Trustees of Columbia University in the City of New York, priority 2002, dated 2004).
# No end group written: not given here.
# Test system: Fas/FAP-1 binding
# Experiment: In vitro inhibition assay of Fas/FAP-1 binding (GST-Fas, 35S-labeled FAP-1)
# Settings: 15-mer peptide 1-1000 μM; human PAMP 1 mM; peptides acetylated
# Experimental: 3A. Inhibition assay of Fas/FAP-1 binding using the C-terminal 15 amino acids of Fas. GST-Fas fusion protein (191-355) was used for in vitro binding assay (lane 1, 3-10). GST-Fas fusion protein (191-320) (lane 2) and 1 mM human PAMP (N-terminal 20 amino acids of proadrenomedullin, M. W. 2460.9) (lane 3) were used as negative controls. The concentrations of the C-terminal 15 amino acids added were 1 (lane 4), 3 (lane 5), 10 (lane 6), 30 (lane 7), 100 (lane 8), 300 (lane 9), and 1000 μM (lane 10).
# HFAP-10 cDNA (Sato, et al. 1995) subcloned into the Bluescript vector pSK-II (Stratagene) was in vitro-translated from an internal methionine codon in the presence of ^35S-L-methionine using a coupled in vitro transcription/translation system (Promega, TNT lysate) and T7 RNA polymerase. […] After washing vigorously 4 times in the same buffer, associated proteins were recovered with the glutathione-Sepharose beads by centrifugation, eluted into boiling Laemmli buffer, and analyzed by SDS-PAGE and fluorography.
# In vitro-translated [^35S ]HFAP-1 was purified with a NAP-5 column (Pharmacia) and incubated with 3 μM of GST-fusion proteins for 16 hours at 4° C. After washing 4 times in the binding buffer, radioactivity incorporation was determined in a β counter. […]
# Fas/FAP-1 binding, sequence (Q12923 1361-1456 limits assumed): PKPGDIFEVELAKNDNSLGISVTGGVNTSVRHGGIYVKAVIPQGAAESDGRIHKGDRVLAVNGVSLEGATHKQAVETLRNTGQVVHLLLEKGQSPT
row,Substance,inhibitory effect on binding of in vitro-translated FAP-1 to GST-Fas
1,"human PAMP peptide: N-terminal 20 amino acids of proadrenomedullin, negative control (ARLDVASEFRKKWNKWALSR; ends and bridges not checked; UniProt P35318 22-41, looked up)",no effect
2,synthetic 15 amino acids of Fas: synthetic peptide of the C-terminal 15 amino acids of Fas (Ac-DSENSNFRNEIQSLV),dramatically reduced and dependent on the concentration
